Data reported in PubChem BioAssay AID2305 (GlaxoSmithKline (GSK), 2010).

These compounds were tested on P. falciparum 3D7 growth, pLDH absorbance (assay: blood-stage malaria parasite growth potency – strain 3D7, dose response (AID 2305)).
Nc1nc2c(cnn2CCCCCCCP(=O)(O)O)c(=O)[nH]1 showed an IC50 of 470 nM.
In the case of CS(=O)(=O)c1ccc(CCNCc2ccc(-c3ccc(CNC4CCN(Cc5ccccc5)CC4)cc3)nc2)cc1, the IC50 is reported as 250 nM.
O=C(CN1CCN(C(=O)c2ccco2)CC1)Nc1ccc(Br)cc1Cl showed an IC50 of 770 nM.
O=C(Nc1cccc(-c2ccc(-c3nc4ccc(C(F)(F)F)cc4[nH]3)cc2)c1)c1csnn1 was tested, and the IC50 was 690 nM.
With Cc1cccc(-n2nc(C)c3c2NC(=O)CC3C(=O)c2ccc(Cl)s2)c1 (stereo not given) the IC50 was 470 nM.
Compound COc1ccc2nccc([C@@H](O)CN3CCC(NC(=O)/C(=C/c4ccccc4)c4ccc(-c5ccccc5)cc4)CC3)c2c1 has an IC50 of 1050 nM.
Work on CCN(CC)CCN(Cc1ccc(-c2ccc(C(F)(F)F)cc2)cc1)C(=O)Cn1c(CCc2cccc(F)c2F)nc(=O)c2ccc(F)cc21 yielded an IC50 of 360 nM.
For COc1ccc2ncc(F)c(CCN3[C@@H]4CC[C@H]3CC(NCc3cc5c(cn3)OCS5)C4)c2n1 (stereo not given in full), the IC50 was 920 nM.
Nc1ccnc2ccc(OCCCCCCc3ccccc3)cc12 gave an IC50 of 520 nM.
N=c1n(Cc2ccccc2)c2ccccc2n1CC(O)c1ccc(Cl)c(Cl)c1 (stereo not given) gave an IC50 of 830 nM.
CN1CC[C@@H](Oc2cc(NC(=O)Nc3ccccc3Br)ccc2Cl)C1 showed an IC50 of 1100 nM.
CCN(CC)CCN(Cc1ccc(-c2ccc(C(F)(F)F)cc2)cc1)C(=O)Cn1c(CCc2cccc(F)c2F)nc(=O)c2ccccc21 was tested, and the IC50 was 670 nM.
Compound CN(C)CCOc1ccc(-c2cc(-c3ccc(Cl)c(O)c3)c(-c3ccnc(N)n3)o2)cc1 has an IC50 of 1320 nM.
With COc1cc(OC)cc(-c2nn(-c3ccc([N+](=O)[O-])cc3C#N)c(=S)n2Cc2ccco2)c1 the IC50 was 580 nM.
Work on CC(C)(C)c1ccc(OC(=O)c2ccc(NC(=O)N[C@@H](Cc3ccc(O)cc3)C(=O)NC3CCN(Cc4ccc(O)cc4)C3)cc2)cc1 (stereo not given in full) yielded an IC50 of 810 nM.
Work on CC1(C)N=C(N)NC(Nc2ccc(F)c(F)c2)=N1 yielded an IC50 of 50 nM.
Work on CNC(=C[N+](=O)[O-])NCCSCc1cc(C)c(CN(C)C)s1 yielded an IC50 of 350 nM.
In the case of CSC1=NC(=Nc2c(C)cccc2C)C2(CCC(C(C)(C)C)CC2)N1c1ccc(O)cc1 (stereo not given), the IC50 is reported as 250 nM.
O=C(Nc1cccc(C(F)(F)F)c1)c1cccc(S(=O)(=O)NCC2CCCN(CC3CCCCC3)C2)c1 (stereo not given) gave an IC50 of 880 nM.
Compound N#CN1CC[C@@H](OC(=O)N[C@@H]2C[C@H]2c2ccccc2)C1 has an IC50 of 1340 nM.
With Cc1ccc(-c2cc(C(=O)Nc3ccc(S(=O)(=O)N4CCCCC4C)cc3)[nH]n2)c(O)c1 (stereo not given) the IC50 was 1080 nM.
In the case of CC[C@H]1CN2CC[C@H]1C[C@@H]2[C@@H](O)c1ccnc2ccccc12, the IC50 is reported as 280 nM.
With C=CCNC(=O)C(C)c1ccc2cc(OC)ccc2c1 (stereo not given) the IC50 was 420 nM.
Compound Cc1cccc2[nH]c(-c3ccc(-c4cccc(NC(=O)CCc5cnc[nH]5)c4)s3)nc12 has an IC50 of 840 nM.
For CC(C)C1=C[C@H]2C[C@]3(C4OCCO4)[C@@H]4CC[C@@H](C)[C@H]4C[C@@]2(C(=O)OCC2COCO2)[C@]13C(=O)OC(c1ccccc1)c1ccccc1 (stereo not given in full), the IC50 was 850 nM.
Work on CN(C)CCNC(=O)[C@H](Cc1ccccc1)NC(=O)c1ccc(O)c(-c2ccc(Cl)c(Cl)c2)c1 yielded an IC50 of 710 nM.
In the case of COC(=O)c1ccc(CCCNCC(O)c2cccc(C(F)(F)F)c2)cc1 (stereo not given), the IC50 is reported as 800 nM.
With COc1ccc2ncc(F)c([C@H](O)CN3CCC(NCc4ccc5c(c4)NC(=O)CS5)CC3)c2c1 the IC50 was 190 nM.
CC(Cc1ccc(NC(=O)CCCc2ccccc2)cc1)NCCc1cccc(Cl)c1 (stereo not given) was tested, and the IC50 was 950 nM.
CCOC(=O)c1[nH]c(-c2cc(Cl)nc(Cl)c2)nc1NC(=S)NCc1ccc(NS(C)(=O)=O)cc1 gave an IC50 of 890 nM.
Compound CN(Cc1cccc(F)c1)C1CCN(c2cc(NC(=O)c3cccc(F)c3)ccn2)CC1 has an IC50 of 1160 nM.
Compound O=C(/C=C/c1ccc(Cl)c(Cl)c1)NCC1CCC(N2CCC(c3c[nH]c4ccccc34)CC2)CC1 (stereo not given) has an IC50 of 170 nM.
In the case of CC(C)CNCc1ccc(-c2cccc(CN(C(=O)Nc3ccccc3)C3CCN(Cc4ccccc4)CC3)c2)cc1, the IC50 is reported as 410 nM.
O=C(NCCCc1ccccc1)c1csc(C2CCCN(C(=O)c3ccc(O)c(-c4cccc5ccccc45)c3)C2)n1 (stereo not given) gave an IC50 of 970 nM.
In the case of C[C@@H]1CN(c2cnn(C/C=C/c3ccc(NC(=O)c4ccc5nonc5c4)cc3)c(=O)c2Cl)C[C@H](C)N1, the IC50 is reported as 790 nM.
For CS(=O)(=O)Cc1ccc(Nc2nccc(-c3c(-c4cccc(NC(=O)C5CCCCC5)c4)nn4ncccc34)n2)cc1, the IC50 was 200 nM.
In the case of Cn1cnc(-c2ccc3c(c2)CCN(CCC2CCC(NC(=O)/C=C/c4ccc(F)cc4)CC2)CC3)c1 (stereo not given), the IC50 is reported as 900 nM.
COc1ccc(CN2CCN(CCOC(c3ccccc3)c3ccc(Cl)cc3)CC2)c(O)c1 (stereo not given) showed an IC50 of 710 nM.
For CCN(CC)Cc1ccc2c(=O)cc(CCc3cccc(F)c3F)n(CC(=O)N(Cc3ccc(-c4ccc(C(F)(F)F)cc4)cc3)C(C)C)c2c1, the IC50 was 780 nM.
With Cc1cc(N(C)CCN(C)C)nc(Nc2ccc(Br)cc2)n1 the IC50 was 800 nM.
For COc1cc2c(cc1OC)C(C(=O)c1ccccc1)=NCC2, the IC50 was 1090 nM.
CCOc1ccc2c(NN=Cc3cccc([N+](=O)[O-])c3)cc(C)nc2c1 was tested, and the IC50 was 220 nM.
Work on Cc1cc(N(C)C2CCN(C)CC2)nc(Nc2ccc(Cl)cc2)n1 yielded an IC50 of 290 nM.
With CCc1ccc(C2CCN(CCCCNC(=O)c3ccc(NC(=O)c4ccc(Cl)cc4)cc3)CC2)c(OC)c1 the IC50 was 790 nM.
For O=C(c1cccs1)N1CCN(c2ccc([N+](=O)[O-])c(NC3CC3)c2)CC1, the IC50 was 770 nM.
With O=C(/C=C/c1ccc(Cl)c(Cl)c1)NCCCCCN1CCC(CCNC(=O)Cc2ccc(Cl)cc2)CC1 the IC50 was 1160 nM.
For Cc1[nH]c(C)c(-c2ccc(Oc3ccc(F)cc3)cc2)c(=O)c1Br, the IC50 was 50 nM.
CCOc1ccc2c(NN=Cc3ccc(OC)c(OC)c3)cc(C)nc2c1 showed an IC50 of 700 nM.
C=C1N(C)c2cc([N+](=O)[O-])c(N)cc2C1(C)C gave an IC50 of 490 nM.
Compound CNCCCCCCOc1ccc(CC(C)NCC(O)c2cccc(C(F)(F)F)c2)cc1 (stereo not given) has an IC50 of 880 nM.
Cc1ccc(C)c(S(=O)(=O)Nc2ccc(Br)cc2C(=O)Nc2cccc(C(F)(F)F)c2)c1 gave an IC50 of 1210 nM.
With Cc1ccc(Nc2nccc(NCC(O)c3cccc(F)c3)n2)cc1 (stereo not given) the IC50 was 670 nM.
With CCN1CCN(C(=O)NC(C(=O)N(C)Cc2ccc(-c3ccc(C(F)(F)F)cc3)cc2)c2cccs2)C(=O)C1=O (stereo not given) the IC50 was 360 nM.
For Cc1cccc(C)c1C1CCN(C2CCC(NC(=O)/C=C/c3ccccc3)CC2)CC1 (stereo not given), the IC50 was 580 nM.
In the case of COc1ccc2nccc([C@@H](O)CN3CCC(NCc4ccc5c(c4)nnn5C(C)C)CC3)c2c1, the IC50 is reported as 640 nM.
Work on Cc1cccc2[nH]c(-c3cccc(-c4cccc(NC(=O)c5cncn5C)c4)c3)nc12 yielded an IC50 of 170 nM.
Work on CC(C)COc1ccc(Cl)cc1Cc1nc(-c2nc3nc(N4CCN(C)CC4)ccc3[nH]2)cs1 yielded an IC50 of 750 nM.
For Clc1ccc(-c2cc3c(NCc4ccncc4)nccc3s2)cc1, the IC50 was 850 nM.
Cc1cc(C(=O)Nc2ccc(-c3nc4ccccc4[nH]3)cc2)ccc1[N+](=O)[O-] showed an IC50 of 670 nM.
For CCN(CC)CCN(Cc1ccc(-c2ccc(C(F)(F)F)cc2)nc1)C(=O)Cn1c(SCc2ccc(F)cc2)nc(=O)c2sccc21, the IC50 was 840 nM.
Cc1[nH]c(C)c(-c2ccc(-c3ccc(Cl)cc3)cc2)c(=O)c1Cl was tested, and the IC50 was 210 nM.
In the case of CNCCCCCCc1ccc(CC(C)NCC(O)c2cccc(Cl)c2)cc1 (stereo not given), the IC50 is reported as 850 nM.
C=Cc1ccccc1C1(O)CCN(CCCCNC(=O)c2ccc(-c3ccc(C#N)cc3)cc2)CC1 was tested, and the IC50 was 520 nM.
For CS(=O)(=O)c1ccccc1CNC(=O)c1cccc(-c2ccc(-c3nc4ccc(C(F)(F)F)cc4[nH]3)cc2)c1, the IC50 was 810 nM.
Work on COc1ccc2ncc(Cl)c(CCN3CCC(NCc4ccc5c(n4)NC(=O)CO5)CC3)c2c1 yielded an IC50 of 470 nM.
With CN1C(=O)OC[C@@H]1Cc1ccc2[nH]cc(C3=CCN(Cc4ccccc4)CC3)c2c1 the IC50 was 420 nM.
With COc1ccc2nccc(N3CCC(SCCNS(=O)(=O)c4ccc5c(c4)NC(=O)CS5)C3)c2n1 (stereo not given) the IC50 was 1580 nM.
With COc1cccc2c(NN=Cc3ccccc3Cl)cc(C)nc12 the IC50 was 210 nM.
With CCCCCCn1c(Sc2ccc(C#N)c([N+](=O)[O-])c2)nnc1-c1cccs1 the IC50 was 710 nM.
For c1cc2nc(CCCc3nc4ccc(C5=N[C@H]6CCCC[C@H]6N5)cc4[nH]3)[nH]c2cc1C1=N[C@@H]2CCCC[C@@H]2N1, the IC50 was 1240 nM.
Cc1cc(NCC(c2ccccc2)c2ccccc2)nc(NCC2CCCCC2)n1 was tested, and the IC50 was 510 nM.
CNCCNCc1ccc(-c2ccc(-c3nc4ccc(F)cc4[nH]3)cc2)cc1 showed an IC50 of 390 nM.
With Cc1oc(-c2ccccc2)nc1CCOc1ccc(C[C@H](Nc2ccccc2C(=O)c2ccccc2)C(=O)NCc2ccccn2)cc1 the IC50 was 880 nM.
CC1(C)N=C(N)N=C(N)N1O showed an IC50 of 190 nM.
Cc1cccc2[nH]c(-c3ccc(-c4cccc(CN5CCCC(O)C5)c4)s3)nc12 (stereo not given) gave an IC50 of 940 nM.
With Cc1cc(N(C)CCCN(C)C)nc(Nc2ccc(Br)cc2)n1 the IC50 was 640 nM.
Work on O=C(NCCCCN1CCN(c2cccc3c2OCCO3)CC1)c1ccc(NC(=O)c2cc(Cl)cc(Cl)c2)cc1 yielded an IC50 of 220 nM.
For Cn1ncc2c3c(CCN4CCC(NCc5cc6c(cn5)OCC6)CC4)c(Cl)cnc3ccc21, the IC50 was 880 nM.
O=C1COc2ccc(CNC3CCC(O)(CCc4ccnc5cc6c(cc45)OCCO6)CC3)nc2N1 (stereo not given) gave an IC50 of 930 nM.
With CCNC(=O)N[C@@H]1CN[C@@H](C#Cc2cc3c(Nc4ccc(OCc5cccc(F)c5)c(Cl)c4)ncnc3s2)C1 the IC50 was 1010 nM.
CNCc1cccc2[nH]c(-c3csc(Cc4cc(Cl)ccc4OCC(C)C)n3)nc12 was tested, and the IC50 was 720 nM.
In the case of CC(C)CNCc1cccc(-c2ccc(CNc3ccc(C(=O)c4ccccc4)cc3)cc2)c1, the IC50 is reported as 760 nM.
Compound c1cncc(CNc2ncc(-c3ccsc3)c(-c3nccs3)n2)c1 has an IC50 of 1380 nM.
Cc1cc(NN=Cc2cccc(F)c2)c2ccc(F)cc2n1 gave an IC50 of 230 nM.
Work on Cc1cc(Nc2nc(NCc3cccnc3)nc3ccccc23)n[nH]1 yielded an IC50 of 850 nM.
Compound Cc1cc2nc(/N=C(\N)NC(=O)NC3CCCCC3)nc(C)c2cc1C has an IC50 of 750 nM.
C(=NNc1cc(-c2ccccc2)nc2ccccc12)c1cccnc1 showed an IC50 of 1230 nM.
For COc1ccc2nccc([C@@H](O)CN3CCC(NCCOc4ccccc4C(F)(F)F)CC3)c2c1, the IC50 was 750 nM.
In the case of Cc1cc(Br)cnc1CCCCNc1cc(=O)c2ccccc2[nH]1, the IC50 is reported as 1160 nM.
In the case of CCCCNS(=O)(=O)c1ccc(NC(=O)c2cc([N+](=O)[O-])ccc2Cl)cc1, the IC50 is reported as 900 nM.
In the case of CCc1cn2c3c(cc(C(=O)N[C@@H](Cc4ccccc4)[C@H](O)CNC4CCC4)cc13)N(C)S(=O)(=O)CC2, the IC50 is reported as 100 nM.
CS(=O)(=O)c1ccc2c(c1)CCN(CCC1CCC(NC(=O)C(=Cc3cccc(C#N)c3)c3ccc(-c4ccccc4)cc3)CC1)CC2 (stereo not given) showed an IC50 of 840 nM.
Compound COc1ccc(CNc2nccc3ccc(-c4ccc(N)nc4)cc23)cc1 has an IC50 of 980 nM.
With COc1ccc(Oc2cnc(N)nc2N)c(C(C)C)c1 the IC50 was 740 nM.
CC(C)NCc1ccc(-c2ccc(NC(=O)c3cccc(Cl)c3)cc2)cc1 showed an IC50 of 960 nM.
